Data taken from patent publication US6369110B1, “Substituted guanidine derivatives and process for producing the same” (Sumitomo Pharmaceuticals Company, priority 1998, dated 2002).

Biological target: T1, Na+/H+ exchange transport system (Rattus norvegicus, UniProt P26431)
T1 construct: a pH change in isolated ventricular myocytes (rat) under an acid load; from tissue; host or cells: isolated rat ventricular myocytes
Assay: Inhibitory effect on the Na+/H+ exchange transport system (in vitro), pH change in isolated ventricular myocytes under an acid load
Format: cell-based
Protocol: Inhibitory Effect on the Na^+/H^+ Exchange Transport System (In Vitro)
A test was carried out according to the method of Iemori et al. (J. Hypertension, 8, 153(1990)). In detail, inhibitory effect on the Na^+/H^+ exchange transport system was evaluated by using as an indication a pH change in isolated ventricular myocytes (rat) under an acid load.

T1 sequence (P26431 whole entry): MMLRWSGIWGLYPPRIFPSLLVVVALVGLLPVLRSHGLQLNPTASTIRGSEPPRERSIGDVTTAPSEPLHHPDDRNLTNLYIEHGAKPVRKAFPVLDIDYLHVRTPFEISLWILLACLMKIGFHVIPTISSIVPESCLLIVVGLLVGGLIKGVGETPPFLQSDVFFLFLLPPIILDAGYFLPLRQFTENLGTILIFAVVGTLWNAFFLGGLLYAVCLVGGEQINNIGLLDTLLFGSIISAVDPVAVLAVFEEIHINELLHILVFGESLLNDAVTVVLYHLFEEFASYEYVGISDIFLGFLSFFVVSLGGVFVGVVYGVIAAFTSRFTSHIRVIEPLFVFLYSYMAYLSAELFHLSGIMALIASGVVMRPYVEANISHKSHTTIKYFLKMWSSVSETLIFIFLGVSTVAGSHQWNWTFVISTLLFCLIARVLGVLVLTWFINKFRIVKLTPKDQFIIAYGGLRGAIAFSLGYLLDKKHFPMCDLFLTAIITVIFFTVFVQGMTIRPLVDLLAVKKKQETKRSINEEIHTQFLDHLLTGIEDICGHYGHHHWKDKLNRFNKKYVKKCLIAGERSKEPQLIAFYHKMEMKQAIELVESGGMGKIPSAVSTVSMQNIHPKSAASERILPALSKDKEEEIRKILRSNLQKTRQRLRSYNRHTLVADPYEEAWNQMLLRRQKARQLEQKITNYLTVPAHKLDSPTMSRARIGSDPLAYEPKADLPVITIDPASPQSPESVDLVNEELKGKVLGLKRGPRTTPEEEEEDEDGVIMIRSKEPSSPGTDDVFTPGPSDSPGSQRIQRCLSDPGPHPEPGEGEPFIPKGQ

Molecule | IC50 [nM]
N-(aminoiminomethyl)-4-methylsulfonyl-6,7-dihydro-5H-benzocycloheptene-8-carboxamide Methanesulfonate [Example 15] | 30
N-(aminoiminomethyl)-5-methyl-6,7-dihydro-5H-benzocycloheptene-8-carboxamide Methanesulfonate [Example 7] | 50
N-(aminoiminomethyl)-4,9-dimethyl-6,7-dihydro-5H-benzocycloheptene-8-carboxamide Methanesulfonate [Example 9] | 2300
N-(aminoiminomethyl)-2,3-dihydro-benz[b]oxepine-4-carboxamide Methanesulfonate [Example 6] | 70
CC1CC(C(=O)NC(=N)N)=Cc2ccccc2C1 (stereo not drawn) [Example 11, N-(aminoiminomethyl)-6-methyl-6.7-dihydro-5H-benzocycloheptene-8-carboxamide Methanesulfonate] | 210
N-(aminoiminomethyl)-3,4-dihydronaphthalene-2-carboxamide Methanesulfonate [Example 1] | 300
N-(aminoiminomethyl)-4-methylthio-6,7-dihydro-5H-benzocycloheptene-8-carboxamide Methanesulfonate [Example 14] | 30
N-(aminoiminomethyl)-9-methyl-6,7-dihydro-5H-benzocycloheptene-8-carboxamide Methanesulfonate [Example 8] | 7100
N-(aminoiminomethyl)-2-methylthio-6,7-dihydro-5H-benzocycloheptene-8-carboxamide Methanesulfonate [Example 12] | 460
N-(aminoiminomethyl)-5-methoxy-3,4-dihydronaphthalene-2-carboxamide Methanesulfonate [Example 2] | 100
N-(aminoiminomethyl)-7-methyl-6,7-dihydro-5H-benzocycloheptene-8-carboxamide Methanesulfonate [Example 10] | 10
N-(aminoiminomethyl)-2-methylsulfonyl-6,7-dihydro-5H-benzocycloheptene-8-carboxamide Methanesulfonate [Example 13] | > 10000
N-(aminoiminomethyl)-2,3-dihydro-1H-benz[b]azepine-4-carboxamide dimethane-sulfonate [Example 5] | 150
N-(aminoiminomethyl )-6,7-dihydro-5H-benzocycloheptene-8-carboxamide Methanesulfonate [Example 3] | 50
N-(aminoiminomethyl)-1-(4-methylphenylsulfonyl)-2,3-dihydro-1H-benz[b]azepine-4-carboxamide Methanesulfonate [Example 4] | 3300
